# Source: PMC9598407, “Identification of Staphylococcus aureus Penicillin Binding Protein 4 (PBP4) Inhibitors” (Antibiotics, 2022)
# Tests used:
# S. aureus strain CRB = assay: Fractional inhibitory concentration checkerboard, ceftobiprole + putative PBP4 inhibitor, strain CRB; type: cell-based, Staphylococcus aureus
# Description: Fractional inhibitory testing was performed in checkerboard format to determine whether putative PBP4 inhibitors potentiated the antimicrobial effects of β-lactams toward S. aureus strains USA300 and CRB, as previously described. To do so, in triplicate 10^5 CFU of each strain (10 µL) was added to individual wells of a microtiter plate containing 90 µL MH media. […] Plates were incubated at 37 °C for 16–20 h and the lowest concentration of each test agent that inhibited bacterial growth alone or in combination was determined by the naked eye. The fractional inhibitory concentration (FIC) index was calculated using the formula: FIC of A (MIC of drug A in combination/MIC of drug A alone) + FIC B ([…]/MIC of drug B alone). A synergistic interaction was defined as a FICI value of less than 0.5, an additive interaction was defined as a FICI value between 0.5 and 1.0, an indifferent interaction was defined as a FICI value between 1.0 and 4.0, and an antagonistic interaction was defined as a FICI value of more than 4.0 [46].
# recombinant PBP4 = recombinant PBP4 (Bacillus subtilis, UniProt P40750); assay: Gel electrophoresis BOCILLIN FL labeling of PBP4; type: binding
# Sequence of recombinant PBP4 (P40750 22-624): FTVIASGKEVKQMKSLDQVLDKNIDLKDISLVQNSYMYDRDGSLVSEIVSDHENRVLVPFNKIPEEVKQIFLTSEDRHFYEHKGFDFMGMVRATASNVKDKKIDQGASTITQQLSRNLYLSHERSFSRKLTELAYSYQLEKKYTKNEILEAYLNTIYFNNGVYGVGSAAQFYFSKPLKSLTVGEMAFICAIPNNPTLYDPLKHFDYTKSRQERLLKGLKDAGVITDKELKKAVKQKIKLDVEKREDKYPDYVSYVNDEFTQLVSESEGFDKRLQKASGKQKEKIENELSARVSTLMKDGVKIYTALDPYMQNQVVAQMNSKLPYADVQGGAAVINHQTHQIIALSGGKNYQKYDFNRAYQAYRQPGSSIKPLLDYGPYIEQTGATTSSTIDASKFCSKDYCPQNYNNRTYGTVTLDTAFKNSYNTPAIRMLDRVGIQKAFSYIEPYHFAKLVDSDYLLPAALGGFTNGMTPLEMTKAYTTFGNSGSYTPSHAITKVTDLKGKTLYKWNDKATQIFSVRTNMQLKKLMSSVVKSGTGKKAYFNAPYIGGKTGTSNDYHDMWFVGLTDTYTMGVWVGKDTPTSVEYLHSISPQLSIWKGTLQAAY
# Description: A second, yet lower resolution, approach was used to verify the impact of 9314848 on PBP4 substrate binding in which the protein was preincubated with compound or control antibiotics then labeled with the BOCILLIN FL and resulting fluorescent labeled protein was visualized following gel electrophoresis.
# The ability of putative PBP4 inhibitors to impact the active site of recombinant PBP4 was assessed using two previously established BOCILLIN-FL Penicillin (Penicillin V conjugated to BODIPY fluorescent dye) binding assays. First, fluorescence polarization assays were performed as previously described, but with minor modifications. Briefly, the indicated amount of the putative PBP4 inhibitor or control antibiotic was incubated with 1 µM recombinant B. subtilis PBP4 or S. aureus PBP2a in potassium phosphate buffer (40 mM K2HPO4 and 10 mM KH2PO4) for 1 h in black 96-well microtiter plates (Corning Life Sciences, Corning, NY, USA). Following incubation, 1 µM (final concentration) BOCILLIN FL penicillin was added, and the mixture was incubated for 30 min. BOCILLIN FL fluorescence polarization was measured at (495 nm excitation and 545 nm emission) in a SpectraMax M5 multimode plate reader (Molecular Devices, San Jose, CA, USA). All assays were repeated at least 8 times, averaged, and values falling outside of 2 standard deviations were considered outliers. The resulting data were plotted as percentage BOCILLIN FL binding inhibition = (T/U) × 100; T = FL polarization of ((PBP4+ BOCILLIN FL) − (PBP4+ BOCILLIN FL + inhibitor compound)), U = FL polarization of ((PBP4 + BOCILLIN FL) − (BOCILLIN FL)). Second, gel electrophoresis and fluorescence detection was used to measure BOCILLIN FL labeling of PBP4 treated with the known PBP4 inhibitor cefoxitin (positive control), kanamycin (negative control) or 9314848 (test compound), as previously described but with minor modifications. Briefly, 1 µM of recombinant PBP4 was mixed with 0, 50, 500, 2000, or 5000 µM 9314848 or control antibiotic in 50 mM phosphate buffer (pH 7.4) and incubated at 37 °C for 30 min. Next 40 μM of BOCILLIN FL was added to the reaction mixture and incubated for an additional 30 min at 37 °C. Reactions were stopped by adding 5× SDS-PAGE gel loading dye, heated at 100 °C for 3 min and separated by electrophoresis in 12% SDS-PAGE (2 h, 120 Volts). BOCILLIN FL labeled PBP4 was imaged at λ = 365 nm using a BioRad Gel Doc EZ Imaging system and the gel was then subsequently stained with Bio-safe Coomassie Brilliant Blue stain (BioRad, Hercules, CA, USA) to measure the amount of protein present in each reaction condition and analyzed using NIH-ImageJ software. The percent BOCILLIN FL binding was calculated by first normalizing the protein present in each reaction condition to that of untreated control and subsequently applying each reaction’s protein normalization factor to each reaction’s fluorescent signal. The percentage BOCILLIN FL binding inhibition was then calculated as the normalized band intensity of antibiotic/compound treated sample as compared to the control sample (PBP4 + BOCILLIN FL in the absence of compound).
smiles,measurement,setting,value
CC1CCN(C(=O)c2cccc(NC(=O)Nc3ccc(Cl)cc3)c2)CC1 [Compound 9314848],MIC,"S. aureus strain CRB; Staphylococcus aureus, read-out: CRB Alone Cmpd (putative PBP4 inhibitor MIC alone)",400 µM
same,CRB Combination BPR (ceftobiprole MIC in combination),"S. aureus strain CRB; strain CRB, ceftobiprole combined with the indicated putative PBP4 inhibitor",8 µg/mL
same,CRB Combination Cmpd (compound concentration in combination),"S. aureus strain CRB; strain CRB, compound combined with ceftobiprole",25 µM
same,CRB Fold-decrease in ceftobiprole resistance in combination,"S. aureus strain CRB; strain CRB, in combination with the indicated putative PBP4 inhibitor",16 fold
same,inhibition at 50 µM,"recombinant PBP4; 50 µM compound, read-out: PBP4 BOCILLIN FL binding inhibition (gel-based)",37.5 ± 8.2%
same,inhibition at 5000 µM,"recombinant PBP4; 5000 µM compound, read-out: PBP4 BOCILLIN FL binding inhibition (gel-based)",72.1 ± 13.1%
same,PBP4 BOCILLIN FL binding inhibition (gel-based) at low concentration,recombinant PBP4; concentrations below 50 µM,did not reproducibly demonstrate BOCILLIN FL binding inhibition
